# Molecular target: T1, Glycogen phosphorylase, muscle form (Oryctolagus cuniculus, UniProt P00489)
# T1 sequence (P00489 whole entry): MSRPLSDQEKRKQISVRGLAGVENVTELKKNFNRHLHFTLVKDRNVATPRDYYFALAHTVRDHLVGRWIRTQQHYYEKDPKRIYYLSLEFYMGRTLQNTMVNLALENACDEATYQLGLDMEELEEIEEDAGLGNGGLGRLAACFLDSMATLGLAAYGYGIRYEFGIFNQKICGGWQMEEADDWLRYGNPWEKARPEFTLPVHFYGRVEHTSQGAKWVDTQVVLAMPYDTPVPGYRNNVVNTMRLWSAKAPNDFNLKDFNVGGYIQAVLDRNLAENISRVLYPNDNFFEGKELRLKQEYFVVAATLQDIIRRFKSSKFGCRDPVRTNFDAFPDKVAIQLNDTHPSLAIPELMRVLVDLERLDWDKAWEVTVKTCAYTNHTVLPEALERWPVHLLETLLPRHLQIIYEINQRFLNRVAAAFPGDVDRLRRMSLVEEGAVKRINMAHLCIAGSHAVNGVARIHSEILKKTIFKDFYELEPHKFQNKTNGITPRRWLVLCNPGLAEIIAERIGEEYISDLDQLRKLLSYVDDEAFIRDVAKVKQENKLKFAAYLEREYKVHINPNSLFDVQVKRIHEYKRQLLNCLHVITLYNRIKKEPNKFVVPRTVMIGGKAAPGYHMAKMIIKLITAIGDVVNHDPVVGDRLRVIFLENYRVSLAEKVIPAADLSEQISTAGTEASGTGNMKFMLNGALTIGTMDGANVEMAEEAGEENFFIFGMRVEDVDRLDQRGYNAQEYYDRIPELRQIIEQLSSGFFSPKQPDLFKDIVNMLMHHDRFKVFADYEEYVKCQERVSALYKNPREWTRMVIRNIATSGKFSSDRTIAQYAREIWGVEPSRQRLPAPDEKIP
# Assay: Inhibition of rabbit muscle glycogen phosphorylase A assessed as release of phosphate from glucose-1-phosphate after 25 mins by microplate reader based method
row,SMILES,IC50
1,CC1(C)CC[C@]2(C(=O)O)CC[C@]3(C)C(=CC[C@@H]4[C@@]5(C)CCC(=O)[C@@](C)(CO)[C@@H]5CC[C@]43C)[C@@H]2C1,53.5 µM
2,CC1(C)CC[C@]2(C(=O)O)CC[C@]3(C)C(=CC[C@@H]4[C@@]5(C)CC/C(=N\O)C(C)(C)[C@@H]5CC[C@]43C)[C@@H]2C1,225 µM
3,CC1(C)CC[C@]2(C(=O)OCc3ccccc3)CC[C@]3(C)C(=CC[C@@H]4[C@@]5(C)CC/C(=N\O)C(C)(C)[C@@H]5CC[C@]43C)[C@@H]2C1,20.8 µM
4,C[C@H]1[C@H](C)CC[C@]2(C(=O)O)CC[C@]3(C)C(=CC[C@@H]4[C@@]5(C)CC[C@H](OC(=O)CCC(=O)O)C(C)(C)[C@@H]5CC[C@]43C)[C@H]12,27.6 µM
5,CC(=O)O[C@H]1CC[C@]2(C)[C@H]3CC=C4[C@@H]5[C@@H](C)[C@H](C)CC[C@]5(C(=O)O)CC[C@@]4(C)[C@]3(C)CC[C@H]2C1(C)C [O-ACETYLURSOLIC ACID],131 µM

# Further compounds by falling IC50, results first:
row,IC50,SMILES
1,103 µM,CC1(C)CC[C@]2(C(=O)O)CC[C@]3(C)C(=CC[C@@H]4[C@@]5(C)C[C@@H](O)[C@H](O)[C@@](C)(CO)[C@@H]5CC[C@]43C)[C@@H]2C1 [ARJUNOLIC ACID]
2,34.3 µM,CC1(C)CC[C@]2(C(=O)O)CC[C@]3(C)C(=CC[C@@H]4[C@@]5(C)CC[C@H](OC(=O)CCC(=O)O)C(C)(C)[C@@H]5CC[C@]43C)[C@@H]2C1 [OLEANOLIC ACID 3-O-SUCCINATE]
3,33.7 µM,COC(=O)[C@]12CC[C@@H](C)[C@H](C)[C@H]1C1=CC[C@@H]3[C@@]4(C)C[C@@H](O)[C@H](O)C(C)(C)[C@@H]4CC[C@@]3(C)[C@]1(C)CC2 [COROSOLIC ACID METHYL ESTER]
4,21.7 µM,CC1(C)CC[C@]2(C(=O)OCc3ccccc3)CC[C@]3(C)C(=CC[C@@H]4[C@@]5(C)C[C@H](O)[C@H](O)C(C)(C)[C@@H]5CC[C@]43C)[C@@H]2C1 [BENZYL AUGUSTATE]
